Results taken from patent publication US11229664B2, “Treatment of myelosuppression” (priority 2012, dated 2022).
Several values for one entry are separate records, joined by “and”; a condition that tells them apart may be missing. Equal entries are not always repeated.

Experiments:
neutrophils = experiment: Clinical trial, metastatic pancreatic cancer: absolute neutrophil count / neutropenia grade; format: in vivo, human; parameters: Neutrophil count: unit not given here; details: for Neutrophil Values / Neutrophil count: individual patients; for Neutrophil Values: ODSH adjunctive to gemcitabine and nab-paclitaxel; for Neutrophil count: randomized stage
Excerpt: Male and non-pregnant, non-lactating, female patients, aged 18 to 75, with histologically confirmed metastatic adenocarcinoma of the pancreas were enrolled in the trial. […] Treatment consisted of a series of 28-day cycles, wherein the last day of one cycle (e.g., day 28, cycle 1) was immediately followed by the first day of the next cycle (e.g., day 1, cycle 2). […] Nab-paclitaxel and gemcitabine therapy was given as described in the prescribing information for Abraxane® and Gemzar®. See also, Von Hoff et al., 2011, J. […] As a substantially non-anticoagulant heparinoid, ODSH can be administered at a dose that is greater than the fully anticoagulant dose of unfractionated heparin, without concern for anticoagulant effect, as shown in the Results below. An initial run-in period was conducted in which ten patients were treated with the gemcitabine, nab-paclitaxel, and ODSH regimen described above. After all ten patients had completed at least one 28-day cycle, the data were reviewed and an open-label randomized study initiated, with two arms (ODSH arm and Control arm). In the ODSH arm, the dosing regimen was the same as in the run-in period (gemcitabine, nab-paclitaxel, and ODSH). In the Control arm, patients were given the same gemcitabine and nab-paclitaxel regimen as in the run-in period, but without ODSH. […] Platelet counts, total white blood cell counts, and absolute neutrophil counts were performed. Grading of thrombocytopenia and/or neutropenia was performed according to the following standards: [table]

[1] = system: Human ovarian cancer cell line A2780; experiment: A2780 human ovarian cancer xenograft model: tumor weight; format: in vivo, athymic female mice; parameters: key to Mouse status printed in place of tumor weight: FD = Found Dead; TS = Terminal Sacrifice; details: for Tumor weight, individual mice: listed as PGX ODSH; for Mouse status printed in place of tumor weight: Groups 2 and 3
Method: ODSH (50 mg/mL stock concentration) was made by Pyramid Laboratories, Inc. and stored at room temperature until use. As described further below, ODSH was administered either intravenously (IV), at a dose of 48 mg/kg and volume of 10 mL/kg, or subcutaneously (SC) at a dose of 24 mg/kg and volume of 5 ml/kg. Carboplatin obtained from a clinical supplier was stored at 4° C. until use. Carboplatin was administered by intraperitoneal injection (IP) at a dose of 80 mg/kg and volume of 10 mL/kg. Saline solution (0.9% NaCl) was used as a vehicle control for ODSH and administered by the same routes and in the same volumes as ODSH.
Human ovarian cancer cell line A2780 was used in the murine xenograft experiments as follows. Approximately 5×10^6 A2780 cells were used per mouse, injected subcutaneously into the right flank in 0.1 mL of 50% Matrigel/50% media. The study was initiated when tumors reached a size of 90-130 mg. 40 mice were used, 10 per treatment regimen. The mice were normal athymic female mice, aged 6-7 weeks, housed in microisolator cages and maintained under pathogen-free conditions. Tumor and body weights were measured three times per week.
Four treatment groups were studied.

[2] = ODSH adjunct to gemcitabine/nab-paclitaxel

## substantially 2-O, 3-O desulfated heparin [ODSH]
neutrophils; [2]
  Patients with increased or unchanged neutrophil counts on first day of second cycle vs first day of first cycle: Five out of 10
  Patients with normal neutrophil counts at the start of the fourth cycle: 10 out of 10
  Patients with normal neutrophil counts at the start of the third cycle: 8 out of 9
  Patients with normal neutrophil counts on the first day of the second treatment cycle: Eight out of 10
neutrophils; all samples (FIG. 10B), ODSH adjunct to gemcitabine/nab-paclitaxel
  Mean and median absolute neutrophil counts on the first day of treatment cycles 2 and 3: above 2,000
neutrophils; day 15, first cycle, ODSH adjunct to gemcitabine/nab-paclitaxel
  Patients with no more than mild neutropenia after two doses of treatment: 44%
neutrophils; day 15 of cycle 2 or day 15 of cycle 3, ODSH adjunct to gemcitabine/nab-paclitaxel
  Patients with no more than mild neutropenia after five or eight doses of treatment: 7 out of 10
neutrophils; Cycle 1 Day 1 (before treatment)
  Neutrophil Values: 4.3 ×10^3/μl blood (2×) and 3.6 ×10^3/μl blood (2×) and 5.5 ×10^3/μl blood and 2.1 ×10^3/μl blood and 3.3 ×10^3/μl blood
neutrophils; Cycle 1 Day 8
  Neutrophil Values: 1.3 ×10^3/μl blood and 2.1 ×10^3/μl blood and 4.3 ×10^3/μl blood and 0.5 ×10^3/μl blood and 3.0 ×10^3/μl blood and 1.5 ×10^3/μl blood
neutrophils; Cycle 1 Day 15
  Neutrophil Values: 0.7 ×10^3/μl blood (2×) and 1.6 ×10^3/μl blood and 3.6 ×10^3/μl blood and 3.5 ×10^3/μl blood and 1.0 ×10^3/μl blood
  Neutrophil count: 2.4 and 1.4 and 4.0 (2×) and 0.8 and 4.7 and 3.0 and 0.3
neutrophils; Cycle 2 Day 1
  Neutrophil Values: 7.3 ×10^3/μl blood and 1.6 ×10^3/μl blood and 4.6 ×10^3/μl blood and 13.0 ×10^3/μl blood and 2.1 ×10^3/μl blood and 6.0 ×10^3/μl blood and 3.6 ×10^3/μl blood
neutrophils; Cycle 2 Day 8
  Neutrophil Values: 3.8 ×10^3/μl blood and 2.6 ×10^3/μl blood and 3.7 ×10^3/μl blood (2×) and 6.3 ×10^3/μl blood and 1.3 ×10^3/μl blood and 1.9 ×10^3/μl blood
neutrophils; Cycle 2 Day 15
  Neutrophil Values: 1.8 ×10^3/μl blood and 1.7 ×10^3/μl blood and 3.8 ×10^3/μl blood and 0.7 ×10^3/μl blood and 1.5 ×10^3/μl blood and 1.1 ×10^3/μl blood and 1.0 ×10^3/μl blood
  Neutrophil count: 1.8 (2×) and 1.6 and 0.8 and 3.7 (2×)
neutrophils; Cycle 3 Day 1
  Neutrophil Values: 2.7 ×10^3/μl blood and 2.8 ×10^3/μl blood and 2.2 ×10^3/μl blood and 3.9 ×10^3/μl blood and 1.8 ×10^3/μl blood and 3.2 ×10^3/μl blood
neutrophils; Cycle 3 Day 8
  Neutrophil Values: 1.6 ×10^3/μl blood and 4.2 ×10^3/μl blood and 6.8 ×10^3/μl blood and 3.9 ×10^3/μl blood and 1.4 ×10^3/μl blood (2×)
neutrophils; Cycle 3 Day 15
  Neutrophil Values: 1.5 ×10^3/μl blood (2×) and 1.8 ×10^3/μl blood and 4.5 ×10^3/μl blood and 1.4 ×10^3/μl blood and 0.8 ×10^3/μl blood and 2.6 ×10^3/μl blood
  Neutrophil count: 1.0 and 1.6 and 0.8 and 5.4
neutrophils; Cycle 4 Day 1
  Neutrophil Values: 2.2 ×10^3/μl blood and 5.2 ×10^3/μl blood and 5.7 ×10^3/μl blood and 5.9 ×10^3/μl blood and 3.5 ×10^3/μl blood and 3.2 ×10^3/μl blood and 2.7 ×10^3/μl blood
neutrophils; Cycle 4 Day 8
  Neutrophil Values: 2.5 ×10^3/μl blood and 2.7 ×10^3/μl blood and 2.2 ×10^3/μl blood and 2.0 ×10^3/μl blood and 1.4 ×10^3/μl blood
neutrophils; Cycle 4 Day 15
  Neutrophil Values: 4.6 ×10^3/μl blood and 2.4 ×10^3/μl blood and 3.4 ×10^3/μl blood and 0.7 ×10^3/μl blood and 1.7 ×10^3/μl blood
  Neutrophil count: 4.8 and 4.1
neutrophils; Cycle 5 Day 1
  Neutrophil Values: 1.6 ×10^3/μl blood and 3.2 ×10^3/μl blood and 3.3 ×10^3/μl blood and 23.2 ×10^3/μl blood
neutrophils; Cycle 5 Day 8
  Neutrophil Values: 2.1 ×10^3/μl blood and 3.4 ×10^3/μl blood and 1.6 ×10^3/μl blood and 4.1 ×10^3/μl blood
neutrophils; Cycle 5 Day 15
  Neutrophil Values: 0.8 ×10^3/μl blood and 3.9 ×10^3/μl blood and 1.1 ×10^3/μl blood
neutrophils; Cycle 6 Day 1
  Neutrophil Values: 13.5 ×10^3/μl blood and 2.3 ×10^3/μl blood
neutrophils; Cycle 6 Day 8
  Neutrophil Values: 1.3 ×10^3/μl blood and 1.2 ×10^3/μl blood
neutrophils; Cycle 6 Day 15
  Neutrophil Values: 1.7 ×10^3/μl blood and 10.7 ×10^3/μl blood
neutrophils; Screen
  Neutrophil Values: 5.6 ×10^3/μl blood and 5.9 ×10^3/μl blood and 4.0 ×10^3/μl blood (2×) and 5.3 ×10^3/μl blood and 4.3 ×10^3/μl blood and 9.3 ×10^3/μl blood
[1]; Day 1
  Tumor weight, Mean: 107.0 mg
  Tumor weight, Median: 105.5 mg
[1]; Day 1, Mouse 1-10
  Tumor weight, individual mice: 104 mg (2×) and 107 mg and 109 mg and 112 mg and 120 mg and 126 mg and 90 mg and 96 mg and 101 mg
[1]; Day 4
  Tumor weight, Mean: 146.8 mg
  Tumor weight, Median: 134.2 mg
[1]; Day 4, Mouse 1-10
  Tumor weight, individual mice: 159 mg and 111 mg and 195 mg and 131 mg and 173 mg and 124 mg and 200 mg and 121 mg and 117 mg and 138 mg
[1]; Day 6
  Tumor weight, Mean: 240.3 mg
  Tumor weight, Median: 238.2 mg
[1]; Day 6, Mouse 1-10
  Tumor weight, individual mice: 309 mg and 215 mg and 347 mg and 264 mg and 235 mg and 139 mg and 282 mg and 241 mg and 171 mg and 201 mg
[1]; Day 8
  Tumor weight, Mean: 382.2 mg
  Tumor weight, Median: 392.0 mg
[1]; Day 8, Mouse 1-10
  Tumor weight, individual mice: 449 mg and 321 mg and 639 mg and 413 mg and 411 mg and 183 mg and 422 mg and 373 mg and 315 mg and 296 mg
[1]; Day 11
  Tumor weight, Mean: 609.6 mg
  Tumor weight, Median: 585.4 mg
[1]; Day 11, Mouse 1-10
  Tumor weight, individual mice: 816 mg and 366 mg and 910 mg and 653 mg and 536 mg and 349 mg and 811 mg and 635 mg and 491 mg and 529 mg
[1]; Day 14
  Tumor weight, Mean: 984.4 mg
  Tumor weight, Median: 949.7 mg
[1]; Day 14, Mouse 1-10
  Tumor weight, individual mice: 1,303 mg and 670 mg and 1,499 mg and 1,032 mg and 868 mg and 559 mg and 1,253 mg and 1,084 mg and 815 mg and 762 mg
[1]; Day 18
  Tumor weight, Mean: 1,501.7 mg
  Tumor weight, Median: 1,591.5 mg
[1]; Day 18, Mouse 1-10
  Tumor weight, individual mice: 1,796 mg and 1,150 mg and 1,836 mg and 1,568 mg and 1,714 mg and 891 mg and 1,869 mg and 1,615 mg and 1,157 mg and 1,422 mg
[1]; Day 21
  Tumor weight, Mean: 2,072.6 mg
  Tumor weight, Median: 1952.5 mg
[1]; Day 21, Mouse 1-10
  Tumor weight, individual mice: 2,692 mg and 1,467 mg and 2,639 mg and 1,852 mg and 1,880 mg and 1,289 mg and 2,560 mg and 2,642 mg and 1,681 mg and 2,025 mg
[1]; Day 25
  Tumor weight, Mean: 2,343.5 mg
  Tumor weight, Median: 2,422.8 mg
[1]; Day 25, Mouse 1-10
  Tumor weight, individual mice: 2,414 mg and 2,464 mg and 2,599 mg and 1,817 mg and 2,423 mg
[1]; Day 25, individual mice
  Mouse status printed in place of tumor weight: TS
[1]; Day 28
  Tumor weight, Mean: 3,349.0 mg
  Tumor weight, Median: 3,251.6 mg
[1]; Day 28, Mouse 1-10
  Tumor weight, individual mice: 3,909 mg and 3,784 mg and 3,252 mg and 2,671 mg and 3,129 mg
[1]; Day 28, individual mice
  Mouse status printed in place of tumor weight: TS
